# Measured values from patent US20110230478A1 (Bayer ScienceCrop AG, priority 2008, published 2011).
# Key:
# [1] = logP by HPLC on reversed-phase columns (C 18), EEC Directive 79/831 Annex V.A8; type: physicochemical
# Fusarium proliferatum = assay: Production of Fumonisin FB1 by Fusarium proliferatum (microtitre plate, FB1 by HPLC-MS/MS, growth by OD); type: cell-based; conditions: for pI50 Fum: FB1 concentration in medium after 6 days at 20° C., HPLC-MS/MS; for pI50 growth: OD620 at the beginning and after 6 days
# Fusarium graminearum = type: cell-based; conditions: 50 µM
# Gibberella zeae = conditions: in vivo
# [2] = values marked [b], footnote not given
# [3] = values marked [c], footnote not given
SMILES,"logP [1, 2]","logP [1, 3]",pI50 Fum (Fusarium proliferatum),pI50 growth (Fusarium proliferatum),also measured
CC(C)Nc1nc(Nc2ccc(C(=O)N(C)C)cc2)ncc1Cl [Example 234],1.44[b],2.27[c];,5.3,4.6,
CNC(=O)Oc1cccc(Nc2ncc(Cl)c(NC(C)C)n2)c1 [Example 203],1.53[b],,,4.6,
CCc1cccc(Nc2ncc(Cl)c(NC(C)C)n2)c1 [Example 230],2.33[b],4.25[c];,,,growth inhibition of Fusarium graminearum (Fusarium graminearum): 86%; inhibitory activity of DON/AcDON (Fusarium graminearum): > 80%
CN(C)S(=O)(=O)c1cccc(Nc2ncc(Cl)c(NC(C)(C)C)n2)c1 [Example 51],,,,<4.3,"logP ([1]; method marker [a], footnote not given): 2.73[a]"
COCC(C)Nc1nc(Nc2ccc(C(C)=O)cc2)ncc1Cl (stereo not drawn) [Example 152],2.02[b],,5,<4.3,
CCCC(CC)Nc1nc(Nc2ccccc2)ncc1Br (stereo not drawn) [Example 228],,,,<4.3,"logP ([1]; values marked [a], pH 2.3): 2.44[a]"
C=CCNC(=O)c1ccc(Nc2ncc(Cl)c(NC(C)COC)n2)cc1 (racemic) [Example 136],1.64[b],,4.4,<4.3,
COCC(C)Nc1nc(Nc2cccc(OC)c2)ncc1Br (stereo not drawn) [Example 109],,,4.7,<4.3,"logP ([1]; method marker [b], footnote not given, compound 68 value matches logP (pH 2.3)): 1.9[b]"
CC(C)Nc1nc(Nc2ccc(CC(=O)C(C)(C)C)cc2)ncc1Cl [Example 199],2.3[b],,,4.9,
CSc1cccc(Nc2ncc(Cl)c(NC(C)C)n2)c1 [Example 173],,3.89[c],4.8,<4.3,"logP ([1]; values marked [a], pH 2.3): 2.36[a];; efficacy (Gibberella zeae): ≥ 80%"
